Columns and labels:
[1] = system: lymphocytes, monocytes, CD4+, CD8+, CD19+ and Ter119+ cells; test: immune cell populations in EAE animals by FACS; assay type: in vivo, mice; settings: spleen, day 5; exendin-4 1 mg/kg or dexamethasone 4 mg/kg daily
[2] = system: IL-17+ and IFN-γ+ cells (Th17 and Th1); test: IL-17+ and IFN-γ+ CD4 cells in inguinal lymph nodes by FACS; assay type: in vivo, mice; settings: inguinal lymph node; exendin-4 1 mg/kg or dexamethasone 4 mg/kg daily; day 5 or 7
thymocytes = test: CD4, CD8 double positive thymocytes in naïve and EAE animals (Table 5); assay type: in vivo, mice; settings: exendin-4 1 mg/kg or dexamethasone 4 mg/kg, day 6
Text: EAE was induced in 8 week old C57B1/6 mice by subcutaneous injections of MOG/CFA followed by i.p. injection of pertussis toxin. […] Dexamethasone is known to cause T cell death. On day 6 after immunization, thymi were harvested. Thymocytes were isolated, stained with anti-CD4 and anti-CD8 antibodies and analyzed by flow cytometry.

[3] = system: EAE in MOG (35-55) immunized C57BL/6 mice; test: EAE clinical score (morbidity) after MOG (35-55) immunization; assay type: in vivo
Procedure: EAE was induced in female C57BL/6 mice by s.c. injection of 200 μg of the encephalitogenic peptide MOG (35-55) emulsified in CFA (Difco) and supplemented with 4 mg/ml of M. tuberculosis (Difco) on experiment day 0, followed immediately and again after 48 hours by 400 ng of pertussis toxin injected i.v.
(§1) Animals were scored for morbidity as follows: 0=normal; 1=limp tail; 2=moderate hind limb weakness; 3=moderately severe hind limb weakness (animal can still walk with difficulty); 4=severe hind limb weakness (animal can move its hind limbs but cannot walk); 5=complete hind limb paralysis; and 6=death.
Another group of mice were treated on a weekly basis with 1mg/kg GAC-1 (n=10). The mice were assessed daily for clinical signs of EAE according to the following scale: 0=normal; 1=limp tail; 2=moderate hind-limb weakness; 3=moderately severe hind-limb weakness (animal can still walk); 4=severe hind-limb weakness (animal can move their hind-limbs but cannot walk); 5=complete hind limb paralysis; 6=death.
In a separate experiment, EAE was induced as described above. […] A second group of animals were treated with 3 mg/kg GAC-1 on day 0 after MOG immunization, followed by weekly treatments of 1 mg/kg GAC-1 starting on day 7 after immunization. A third group of animals were treated daily with PBS (control, n=10). Clinical scores were monitored daily following criteria described above.
as §1, with “At day 5 after immunization, blood samples were taken for measurement of GLP1 levels. […] To monitor disease progression, animals” for “Animals”, “scored daily” for “scored”

glucose and GLP-1 levels = test: oral glucose tolerance test; assay type: in vivo, mice; settings: vs methylcellulose
Text: GLP-1 is degraded in vivo by dipeptidyl peptidase-4 (DPP-4). DPP-4 inhibitors include, for example without limitation, sitagliptin, vildagliptin, saxagliptin, linagliptin, dutogliptin, gemigliptin, alogliptin and berberine. To test whether the DPP-4 inhibitor sitagliptin can prevent glucose level increases and elevated GLP-1 levels, four groups of 12 month old male C57BI/6 mice (n=4-5) were fasted overnight and subjected to an oral glucose tolerance test the following morning. One hour prior to oral glucose challenge, test animals were orally dosed with either 1 mg/kg or 10 mg/kg sitagliptin. […] After oral glucose challenge, glucose levels were test at 20, 40, 60 and 120 minutes. Blood samples were also taken at 20 minutes after glucose challenge to check glucose and GLP-1 levels.

GLP-1 levels = test: blood GLP1 levels in EAE mice at day 5 after immunization; assay type: in vivo; settings: 10 mg/kg once daily, vs methylcellulose
Text: as §1, with “At day 5 after immunization, blood samples were taken for measurement of GLP1 levels. […] To monitor disease progression, animals” for “Animals”, “scored daily” for “scored”

C[C@@H]1C[C@H]2[C@@H]3CCC4=CC(=O)C=C[C@]4(C)[C@@]3(F)[C@@H](O)C[C@]2(C)[C@@]1(O)C(=O)CO [dexamethasone]
reduction of Ter119+ cells in EAE animals [1]: 20-25% | reduction of IL-17+ cells in EAE animals [2]: 50% | % CD4, CD8 double positive cells (thymocytes; EAE mice): 1.5±0.5% | % CD4, CD8 double positive cells (thymocytes; Naïve mice): 12.4±3.3%

N[C@@H](CC(=O)N1CCn2c(nnc2C(F)(F)F)C1)Cc1cc(F)c(F)cc1F [sitagliptin]
disease score from day 18 to day 20 ([3]; 10 mg/kg once daily, vs methylcellulose): significantly lower | morbidity (EAE clinical score) ([3]; once daily day 0 to day 28, exendin-4 1 mg/kg, sitagliptin 1 or 10 mg/kg, vs methylcellulose, FIG. 18): significantly reduced morbidity | EAE progression / disease symptoms ([3]; once daily day 0 to day 28, exendin-4 1 mg/kg, sitagliptin either 1 mg/kg or 10 mg/kg, FIG. 18): trend towards attenuating disease symptoms | glucose levels after oral glucose challenge (glucose and GLP-1 levels; 1 mg/kg or 10 mg/kg oral, not statistically significant by two-way ANOVA): trend toward lower glucose levels | blood GLP-1 levels 20 minutes after oral glucose challenge (glucose and GLP-1 levels; either dose (1 mg/kg or 10 mg/kg oral)): significantly increased blood GLP-1 levels | GLP-1 levels at day 5 after immunization (GLP-1 levels): significantly higher GLP-1 levels
